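Each compound was tested at five concentrations against cells in 96-well plates for 48 hours. GI50 marks 50% less growth.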 Active and inactive are the calls of the source. No stated cut-off is given here; in the data, active = GI50 up to about 1.1 µM and inactive = higher.
Columns and labels:
Assay in all cases: NCI-60 cell line screen, 48 h
[1] = tested on: A549
[2] = tested on: BT-549
[3] = tested on: HL-60
[4] = tested on: HOP-62
[5] = tested on: IGROV-1
[6] = tested on: KM12
[7] = tested on: LXFL 529
[8] = tested on: MCF7
[9] = tested on: MDA-N
[10] = tested on: NCI-H226
[11] = tested on: NCI/ADR-RES
[12] = tested on: OVCAR-5
[13] = tested on: PC-3
[14] = tested on: RXF 393
[15] = tested on: SF-268
[16] = tested on: SK-MEL-2
[17] = tested on: SN12C
[18] = tested on: SNB-19
[19] = tested on: SNB-75
[20] = tested on: UACC-62

O=C1C=C(NCCc2ccccc2)c2ccccc2C1=O
GI50 [1]: 1950 nM (inactive) | GI50 [2]: 2230 nM (inactive) | GI50 [3]: 1690 nM (inactive) | GI50 [4]: 2550 nM (inactive) | GI50 [5]: 7280 nM (inactive) | GI50 [6]: 2630 nM (inactive) | GI50 [7]: 5860 nM (inactive) | GI50 [8]: 1670 nM (inactive) | GI50 [9]: 1780 nM (inactive) | GI50 [10]: 2060 nM (inactive) | GI50 [11]: 4110 nM (inactive) | GI50 [12]: 1980 nM (inactive) | GI50 [13]: 5250 nM (inactive) | GI50 [14]: 6650 nM (inactive) | GI50 [15]: 7240 nM (inactive) | GI50 [16]: 1910 nM (inactive) | GI50 [17]: 1850 nM (inactive) | GI50 [18]: 2810 nM (inactive) | GI50 [19]: 1690 nM (inactive) | GI50 [20]: 1790 nM (inactive)

CSC(=N\c1ccccc1)/N=C(\SCc1ccccc1)N(C)C
GI50 [1]: 1750 nM (inactive) | GI50 [2]: 1420 nM (inactive) | GI50 [3]: 172 nM (active) | GI50 [4]: 1700 nM (inactive) | GI50 [5]: 923 nM (active) | GI50 [6]: 480 nM (active) | GI50 [7]: 454 nM (active) | GI50 [8]: 278 nM (active) | GI50 [9]: 748 nM (active) | GI50 [10]: 1490 nM (inactive) | GI50 [11]: 1380 nM (inactive) | GI50 [12]: 1490 nM (inactive) | GI50 [13]: 1290 nM (inactive) | GI50 [14]: 989 nM (active) | GI50 [15]: 971 nM (active) | GI50 [16]: 1870 nM (inactive) | GI50 [17]: 1020 nM (active) | GI50 [18]: 1390 nM (inactive) | GI50 [19]: 1620 nM (inactive) | GI50 [20]: 555 nM (active)

COC1N(C2CC(O)C(CO)O2)C(=O)NC(=O)C1(F)Br (centres undefined)
GI50 [1]: 1120 nM (active) | GI50 [2]: 25000 nM (inactive) | GI50 [3]: > 50000 nM (inactive) | GI50 [4]: 1450 nM (inactive) | GI50 [5]: 14100 nM (inactive) | GI50 [6]: 21600 nM (inactive) | GI50 [7]: 24400 nM (inactive) | GI50 [8]: 520 nM (active) | GI50 [9]: 18700 nM (inactive) | GI50 [10]: > 50000 nM (inactive) | GI50 [11]: 10700 nM (inactive) | GI50 [12]: 77800 nM (inactive) | GI50 [13]: 51300 nM (inactive) | GI50 [14]: 46700 nM (inactive) | GI50 [15]: 1200 nM (inactive) | GI50 [16]: > 92000 nM (inactive) | GI50 [17]: 9250 nM (inactive) | GI50 [18]: 41200 nM (inactive) | GI50 [19]: 36100 nM (inactive) | GI50 [20]: 4270 nM (inactive)

Cc1cnc(NCCCN(C)C)c2c1[nH]c1ccc3cc(O)ccc3c12
GI50 [1]: 365 nM (active) | GI50 [2]: 1520 nM (inactive) | GI50 [3]: 3320 nM (inactive) | GI50 [4]: 267 nM (active) | GI50 [5]: 1190 nM (inactive) | GI50 [6]: 1390 nM (inactive) | GI50 [7]: 142 nM (active) | GI50 [8]: 308 nM (active) | GI50 [9]: 1040 nM (active) | GI50 [10]: 435 nM (active) | GI50 [11]: 3440 nM (inactive) | GI50 [12]: 925 nM (active) | GI50 [13]: 585 nM (active) | GI50 [14]: 667 nM (active) | GI50 [15]: 288 nM (active) | GI50 [16]: 1030 nM (active) | GI50 [17]: 244 nM (active) | GI50 [18]: 480 nM (active) | GI50 [19]: 555 nM (active) | GI50 [20]: 678 nM (active)

Cc1cc(-c2c(F)cc3c4nn([C@H]5CC[C@@H](N(C)C)CC5)c(=O)c-4cn(C4CC4)c3c2F)cc(C)n1
GI50 [1]: 161 nM (active) | GI50 [2]: 479 nM (active) | GI50 [3]: 38.3 nM (active) | GI50 [4]: 97 nM (active) | GI50 [5]: 1660 nM (inactive) | GI50 [6]: 313 nM (active) | GI50 [7]: 52.8 nM (active) | GI50 [8]: 72.8 nM (active) | GI50 [9]: 1560 nM (inactive) | GI50 [10]: 101 nM (active) | GI50 [12]: 1420 nM (inactive) | GI50 [13]: 1560 nM (inactive) | GI50 [14]: 430 nM (active) | GI50 [15]: 119 nM (active) | GI50 [16]: 820 nM (active) | GI50 [17]: 168 nM (active) | GI50 [18]: 309 nM (active) | GI50 [19]: 51.2 nM (active) | GI50 [20]: 159 nM (active)

C=CCc1cc(-c2cc(CC=C)c(O)c(CN(CC)CC)c2)cc(CN(CC)CC)c1O
GI50 [1]: 71600 nM (inactive) | GI50 [2]: > 49200 nM (inactive) | GI50 [3]: 35400 nM (inactive) | GI50 [4]: 47400 nM (inactive) | GI50 [5]: > 67600 nM (inactive) | GI50 [6]: 43300 nM (inactive) | GI50 [7]: 46600 nM (inactive) | GI50 [8]: 58500 nM (inactive) | GI50 [9]: 31400 nM (inactive) | GI50 [10]: 48900 nM (inactive) | GI50 [11]: 73100 nM (inactive) | GI50 [12]: 18800 nM (inactive) | GI50 [13]: 40200 nM (inactive) | GI50 [14]: 21400 nM (inactive) | GI50 [15]: 76000 nM (inactive) | GI50 [16]: 26900 nM (inactive) | GI50 [17]: 85100 nM (inactive) | GI50 [18]: > 97300 nM (inactive) | GI50 [19]: > 100000 nM (inactive) | GI50 [20]: 22200 nM (inactive)

CC(=O)O[C@H]1C(=O)[C@@]2(C)[C@H]([C@H](OC(=O)c3ccccc3)[C@]3(O)C[C@H](OC(=O)[C@H](O)[C@@H](NC(=O)c4ccccc4)c4ccccc4)C(C)=C1C3(C)C)[C@]1(OC(C)=O)CO[C@@H]1C[C@@H]2O [PACLITAXEL]
GI50 [2]: 32.7 nM (active) | GI50 [3]: 4.27 nM (active) | GI50 [4]: 12.9 nM (active) | GI50 [5]: 7.08 nM (active) | GI50 [7]: 528 nM (active) | GI50 [8]: 2.92 nM (active) | GI50 [9]: 3.07 nM (active) | GI50 [11]: 3110 nM (inactive) | GI50 [12]: 78.3 nM (active) | GI50 [13]: 18.2 nM (active) | GI50 [14]: 6.49 nM (active) | GI50 [15]: 6.58 nM (active) | GI50 [17]: 4.81 nM (active) | GI50 [18]: 12.1 nM (active) | GI50 [20]: 4.19 nM (active)
